Experimental data as given in patent US9481654B2, “Compositions and methods for inhibition of the JAK pathway” (Rigel Pharmaceuticals, Inc., priority 2006, dated 2016).
Where a name gives a salt, the structure may show the parent alone.

Experiments:
[1] = system: IL-4 stimulated CD23 upregulation in human Ramos B cells (JAK-1/JAK-3, Stat-6); assay: Assay for Ramos B-Cell Line Stimulated with IL-4 (CD23 upregulation, FACS); format: cell-based
Description: One means of assaying for such inhibition is detection of the effect of the 2,4-pyrimidinediamine compounds on the upregulation of downstream gene products. In the Ramos/IL4 assay, B-cells are stimulated with the cytokine Interleukin-4 (IL-4) leading to the activation of the JAK/Stat pathway through phosphorylation of the JAK family kinases, JAK1 and JAK3, which in turn phosphorylate and activate the transcription factor Stat-6. […] To study the effect of inhibitors (e.g., the 2,4-substituted pyrimindinediamine compounds described herein) on the JAK1 and JAK3 kinases, human Ramos B cells are stimulated with human IL-4. 20 to 24 hours post stimulation, cells are stained for upregulation of CD23 and analyzed using flow cytometry (FACS).
B-cells stimulated with cytokine Interleukin-4 (IL-4) activate the JAK/Stat pathway through phosphorylation of the JAK family kinases, JAK-1 and JAK-3, which in turn phosphorylate and activate the transcription factor Stat-6. […] To study the effect of inhibitors on the JAK family kinases, human Ramos B cells are stimulated with human IL-4.
Cells were maintained at a density of 3.5×10^5. The day before the experiment, Ramos B-cells were diluted to 3.5×10^5 cells/mL to ensure that they were in a logarithmic growth phase.
Cells were spun down and suspended in RPMI with 5% serum. 5×10^4 cells were used per point in a 96-well tissue culture plate. Cells were pre-incubated with compound or DMSO (Sigma-Aldrich, St. Louis, Mo., Cat No. D2650) vehicle control for 1 hour in a 37° C. incubator. Cells were then stimulated with IL-4 (Peprotech Inc., Rocky Hill, N.J., Cat No. 200-04) for a final concentration of 50 units/mL for 20-24 hours. […] Detection was performed using a BD LSR I System Flow Cytometer, purchased from Becton Dickinson Biosciences of San Jose, Calif.

[2] = system: primary human T-cells (IL-2 induced proliferation, JAK-1/JAK-3, Stat-5); assay: Primary Human T-Cell Proliferation Assay Stimulated with IL-2 (CellTiter-Glo); format: cell-based; conditions: Table III Example 4
Description: In this assay, primary human T-cells derived from peripheral blood and pre-activated through stimulation of the T-cell receptor and CD28, proliferate in culture in response to the cytokine Interleukin-2 (IL-2). This proliferative response is dependent on the activation of JAK1 and JAK3 tyrosine kinases, which phosphorylate and activate the transcription factor Stat-5. The primary human T-cells are incubated with the 2,4-pyrimidinediamine compounds in the presence of IL-2 for 72 hours, and at the assay endpoint intracellular ATP concentrations are measured to assess cell viability. A reduction in cell proliferation compared to control conditions is indicative of inhibition of the JAK kinase pathway.
Primary human T-cells derived from peripheral blood and pre-activated through stimulation of the T-cell receptor and CD28 proliferate in vitro in response to the cytokine Interleukin-2 (IL-2). This proliferative response is dependent on the activation of JAK-1 and JAK-3 tyrosine kinases, which phosphorylate and activate the transcription factor Stat-5.
Human primary T cells were prepared as follows. […] The lymphocytes at the serum: ficoll interface were recovered and washed twice with 5 volumes of PBS. […] The primary T-cells were stimulated for 3 to 4 days, then transferred to a fresh flask and maintained in RPMI with 10% FBS and 40 U/mL IL-2.
Primary T-cells were washed twice with PBS to remove the IL-2 and resuspended in Yssel's medium at 2×10^6 cells/mL. 50 μL of cell suspension containing 80 U/mL IL-2 was added to each well of a flat bottom 96 well black plate. For the unstimulated control, IL-2 was omitted from the last column on the plate. […] 50 μL of 2× compound was added per well in duplicate and the cells were allowed to proliferate for 72 hours at 37° C.
Proliferation was measured using CellTiter-Glo® Luminescent Cell Viability Assay (Promega), which determines the number of viable cells in culture based on quantitation of the ATP present, as an indicator of metabolically active cells. The substrate was thawed and allowed to come to room temperature. After mixing the Cell Titer-Glo reagent and diluent together, 100 μL was added to each well. The plates were mixed on an orbital shaker for two minutes to induce lysis and incubated at room temperature for an additional ten minutes to allow the signal to equilibrate.

[3] = Table III Example 3, sodium salt

| Compound | IC50 ([1]; Table III Example 3) [nM] | IC50 [2] [nM] | IC50 [1, 3] [nM] |
| --- | --- | --- | --- |
| CS(=O)(=O)CS(=O)(=O)NCc1ccc(Nc2nc(Nc3cccc(S(N)(=O)=O)c3)ncc2F)cc1 [Compound I-86, N2-(3-aminosulfonyl)phenyl-5-fluoro-N4-[4-(methylsulfonylmethylsulfonylamino)methyl]phenyl-2,4-pyrimidinediamine] | 505 | 224 |  |
| CCS(=O)(=O)N[C@@H](C)c1ccc(Nc2nc(Nc3ccc(S(N)(=O)=O)cc3)ncc2F)cc1 [Compound I-26, N2-(4-aminosulfonyl)phenyl-N4-[4-(1S-ethylsulfonylamino)ethyl]phenyl-5-fluoro-2,4-pyrimidinediamine] | 252 | 1160 |  |
| Cc1cnc(Nc2cccc(S(=O)(=O)NC3CCN(C)CC3)c2)nc1Nc1cccc(CNS(=O)(=O)C2CC2)c1 [Compound I-160, N4-(3-cyclopropylsulfonylaminomethyl)phenyl-5-methyl-N2-[3-(1-methylpiperidin-4-yl)aminosulfonyl]phenyl-2,4-pyrimidinediamine] | 242 | 3960 |  |
| CCS(=O)(=O)NCc1ccc(Nc2nc(Nc3ccc(C)c(S(N)(=O)=O)c3)ncc2F)cc1Cl [Compound I-76, N2-(3-aminosulfonyl-4-methyl)phenyl-N4-(3-chloro-4-ethylsulfonylaminomethyl)phenyl-5-fluoro-2,4-pyrimidinediamine] | 169 | 463 |  |
| Cc1nc(N)sc1S(=O)(=O)NCc1ccc(Nc2nc(Nc3cccc(S(N)(=O)=O)c3)ncc2F)cc1 [Compound I-41, N4-[4-(2-amino-4-methylthiazol-5-yl)sulfonylaminomethyl]phenyl-N2-(3-aminosulfonyl)phenyl-5-fluoro-2,4-pyrimidinediamine] | 1020 | 2120 |  |
| Cc1cnc(Nc2ccc(S(N)(=O)=O)cc2)nc1Nc1ccc(CNS(=O)(=O)c2cccnc2)cc1 [Compound I-99, N2-(4-aminosulfonyl)phenyl-5-methyl-N4-[4-(pyrid-3-yl)sulfonylaminomethyl]phenyl-2,4-pyrimidinediamine] | 565 | 954 |  |
| NS(=O)(=O)c1ccc(Nc2ncc(F)c(Nc3cccc(CNS(=O)(=O)C4CC4)c3)n2)cc1 [Compound I-32, N2-(4-aminosulfonyl)phenyl-N4-(3-cyclopropylsulfonylaminomethyl)phenyl-5-fluoro-2,4-pyrimidinediamine] | 364 | 1560 |  |
| CCS(=O)(=O)N[C@H](C)c1ccc(Nc2nc(Nc3ccc(S(N)(=O)=O)cc3)ncc2F)cc1 [Compound I-29, N2-(4-aminosulfonyl)phenyl-N4-[4-(1R-ethylsulfonylamino)ethyl]phenyl-5-fluoro-2,4-pyrimidinediamine] | 203 | 882 |  |
| Cc1ccc(Nc2ncc(F)c(Nc3ccc(CNS(=O)(=O)CS(C)(=O)=O)cc3)n2)cc1S(N)(=O)=O [Compound I-87, N2-(3-aminosulfonyl-4-methyl)phenyl-5-fluoro-N4-[4-(methylsulfonylmethylsulfonylamino)methyl]phenyl-2,4-pyrimidinediamine] | 251 | 309 |  |
| Cc1cnc(Nc2cccc(S(=O)(=O)NC(=O)[C@@H](NC(=O)OCc3ccccc3)C(C)C)c2)nc1Nc1cccc(CNS(=O)(=O)C2CC2)c1 [Compound I-147, N2-[3-N-(Cbz-L-Val)aminosulfonyl]phenyl-N4-(3-cyclopropylsulfonylaminomethyl)phenyl-5-methyl-2,4-pyrimidinediamine sodium salt] |  | 25100 | 13800 |
| Cc1cnc(Nc2ccc(S(=O)(=O)NCc3ccccc3)cc2)nc1Nc1ccc(CNS(=O)(=O)C2CC2)cc1 [Compound I-153, N2-(4-benzylaminosulfonyl)phenyl-N4-(4-cyclopropylsulfonylaminomethyl)phenyl-5-methyl-2,4-pyrimidinediamine] | 80 | 118 |  |
| Cc1cnc(Nc2ccc(S(=O)(=O)Nc3ccccc3)cc2)nc1Nc1cccc(CNS(=O)(=O)C2CC2)c1 [Compound I-155, N4-(3-cyclopropylsulfonylaminomethyl)phenyl-5-methyl-N2-(4-phenylaminosulfonyl)phenyl-2,4-pyrimidinediamine] | 250 | 1430 |  |
| NS(=O)(=O)c1ccc(Nc2ncc(F)c(Nc3ccc(CNS(=O)(=O)c4cccnc4)cc3)n2)cc1 [Compound I-89, N2-(4-aminosulfonyl)phenyl-5-fluoro-N4-[4-(pyrid-3-yl)sulfonylaminomethyl]phenyl-2,4-pyrimidinediamine] | 448 | 1500 |  |
| Cc1cnc(Nc2cccc(S(=O)(=O)NC3CCN(C)CC3)c2)nc1Nc1ccc(CNS(=O)(=O)C2CC2)cc1 [Compound I-152, N4-(4-cyclopropylsulfonylaminomethyl)phenyl-5-methyl-N2-[3-(1-methylpiperidin-4-yl)aminosulfonyl]phenyl-2,4-pyrimidinediamine] | 166 | 717 |  |
| CN1CCC(NS(=O)(=O)Cc2cccc(Nc3nc(Nc4cccc(S(N)(=O)=O)c4)ncc3F)c2)CC1 [Compound I-108, N2-(3-Aminosulfonylphenyl)-5-fluoro-N4-[3-(1-methylpiperdin-4-ylaminosulfonylmethylene)phenyl]-2,4-pyrimidinediamine] | 5160 | 25800 |  |
| CC(=O)NS(=O)(=O)c1cccc(Nc2ncc(C)c(Nc3cccc(CN(C(C)=O)S(=O)(=O)C4CC4)c3)n2)c1 [Compound I-196, N2-(3-acetamidosulfonyl)phenyl-N4-[3-(N-acetyl-N-cyclopropylsulfonyl)aminomethyl]phenyl-5-methyl-2,4-pyrimidinediamine sodium salt] |  |  | 2050 |
| CCCC(=O)N(COC(C)=O)S(=O)(=O)c1cccc(Nc2ncc(C)c(Nc3cccc(CNS(=O)(=O)C4CC4)c3)n2)c1 [Compound I-225, N2-[3-(N-acetoxymethyl-N-butyryl)aminosulfonyl]phenyl-N4-(3-cyclopropylsulfonylaminomethyl)phenyl-5-methyl-2,4-pyrimidinediamine] | 115 |  |  |
| CCC(=O)NS(=O)(=O)c1cc(Nc2ncc(F)c(Nc3ccc(CN(C(=O)CC)S(=O)(=O)C4CC4)cc3)n2)ccc1C [Compound I-64, N4-[4-(N-cyclopropylsulfonyl-N-propionyl)aminomethyl]phenyl-5-fluoro-N2-(4-methyl-3-propionylaminosulfonyl)phenyl-2,4-pyrimidinediamine sodium salt] |  |  | 4270 |
| CCCCCC(=O)NS(=O)(=O)c1cccc(Nc2ncc(C)c(Nc3cccc(CN(C(=O)CCCCC)S(=O)(=O)C4CC4)c3)n2)c1 [Compound I-218, N4-[3-(N-cyclopropylsulfonyl-N-hexanoyl)aminomethyl]phenyl-N2-(3-hexanoylaminosulfonyl)phenyl-5-methyl-2,4-pyrimidinediamine] | 3800 |  |  |
| CCCC(=O)NS(=O)(=O)c1cccc(Nc2ncc(C)c(Nc3cccc(CNS(=O)(=O)C4CC4)c3)n2)c1 [Compound I-223, N2-(3-butyrylaminosulfonyl)phenyl-N4-(3-cyclopropylsulfonylaminomethyl)phenyl-5-methyl-2,4-pyrimidinediamine] | 3690 |  |  |
| CCC(=O)NS(=O)(=O)c1cc(Nc2ncc(F)c(Nc3ccc(CNS(=O)(=O)C4CC4)cc3)n2)ccc1C [Compound I-59, N4-(4-cyclopropylsulfonylaminomethyl)phenyl-5-fluoro-N2-(4-methyl-3-propionylaminosulfonyl)phenyl-2,4-pyrimidinediamine] | 6500 |  |  |
